Reference: patent US10556878B2, “Thiourea compounds and their use as inhibitors of Sirt2 or Sirt5” (CORNELL UNIVERSITY, priority 2013, dated 2020)
Each block holds one compound with its values, some of them ahead of it.

Experiments:
[1] = target: T1, Sirt2 (Homo sapiens, UniProt Q8IXJ6); assay: sirtuin inhibition IC50, Sirt2; format: biochemical
T1 sequence (Q8IXJ6 1-389): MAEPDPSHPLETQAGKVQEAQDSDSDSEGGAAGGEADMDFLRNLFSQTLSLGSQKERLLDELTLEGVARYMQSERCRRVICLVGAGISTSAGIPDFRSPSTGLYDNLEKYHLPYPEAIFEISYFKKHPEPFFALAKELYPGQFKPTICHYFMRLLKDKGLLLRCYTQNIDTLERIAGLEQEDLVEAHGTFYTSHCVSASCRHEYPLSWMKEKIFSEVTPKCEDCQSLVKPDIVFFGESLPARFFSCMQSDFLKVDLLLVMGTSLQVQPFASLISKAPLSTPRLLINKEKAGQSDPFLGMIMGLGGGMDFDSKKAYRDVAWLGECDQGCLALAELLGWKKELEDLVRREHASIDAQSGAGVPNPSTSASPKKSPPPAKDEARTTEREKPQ

[2] = target: T2, Sirt5 (Homo sapiens, UniProt Q9NXA8); assay: sirtuin inhibition IC50, Sirt5-catalyzed desuccinylation; format: biochemical
T2 sequence (Q9NXA8 37-310): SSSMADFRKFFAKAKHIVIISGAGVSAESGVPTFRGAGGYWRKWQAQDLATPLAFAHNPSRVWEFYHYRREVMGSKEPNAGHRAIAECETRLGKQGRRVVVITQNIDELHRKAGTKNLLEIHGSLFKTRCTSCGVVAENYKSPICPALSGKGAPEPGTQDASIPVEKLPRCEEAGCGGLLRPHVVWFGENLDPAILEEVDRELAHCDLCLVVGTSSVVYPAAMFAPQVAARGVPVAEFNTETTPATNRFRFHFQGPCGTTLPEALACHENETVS

[3] = system: HeLa cell lines; assay: protein succinylation Western blot in HeLa cells; format: cell-based; conditions: 100 μM, 24 and 48 hours
Description: FIGS. 3A and 3B show the results of treatment of HeLa cell lines with 100 μM YC6-18e at time points of 24 and 48 hours, and FIG. 3C is the structure of YC6-18e. […] The results reveal that treatment with Compound YC6-18e can increase protein lysine succinylation. It was observed that the loading is lower for 48 hours but the succinylation intensity is slightly higher.

[4] = system: MCF-7; assay: inhibition of MCF-7 cancer cells, crystal violet staining after 10 days; format: cell-based, human; conditions: 25, 50, 75, 100 μM
Description: 15,000 cells were seeded in each well and treated with 25, 50, 75, and 100 μM YC6-18 and YC6-18e. Media with the inhibitor/DMSO was changed every three days. Cells were stained with crystal violet after growing for 10 days. The results are shown in FIG. 5A (for YC-6-18) and FIG. 5B (for YC-6-18e).

[5] = target: T3, Sirt1 (Homo sapiens, UniProt Q96EB6); assay: sirtuin inhibition IC50, Sirt1; format: biochemical; conditions: Table 1; NI = no inhibition at 256 μM
T3 sequence (Q96EB6 1-747): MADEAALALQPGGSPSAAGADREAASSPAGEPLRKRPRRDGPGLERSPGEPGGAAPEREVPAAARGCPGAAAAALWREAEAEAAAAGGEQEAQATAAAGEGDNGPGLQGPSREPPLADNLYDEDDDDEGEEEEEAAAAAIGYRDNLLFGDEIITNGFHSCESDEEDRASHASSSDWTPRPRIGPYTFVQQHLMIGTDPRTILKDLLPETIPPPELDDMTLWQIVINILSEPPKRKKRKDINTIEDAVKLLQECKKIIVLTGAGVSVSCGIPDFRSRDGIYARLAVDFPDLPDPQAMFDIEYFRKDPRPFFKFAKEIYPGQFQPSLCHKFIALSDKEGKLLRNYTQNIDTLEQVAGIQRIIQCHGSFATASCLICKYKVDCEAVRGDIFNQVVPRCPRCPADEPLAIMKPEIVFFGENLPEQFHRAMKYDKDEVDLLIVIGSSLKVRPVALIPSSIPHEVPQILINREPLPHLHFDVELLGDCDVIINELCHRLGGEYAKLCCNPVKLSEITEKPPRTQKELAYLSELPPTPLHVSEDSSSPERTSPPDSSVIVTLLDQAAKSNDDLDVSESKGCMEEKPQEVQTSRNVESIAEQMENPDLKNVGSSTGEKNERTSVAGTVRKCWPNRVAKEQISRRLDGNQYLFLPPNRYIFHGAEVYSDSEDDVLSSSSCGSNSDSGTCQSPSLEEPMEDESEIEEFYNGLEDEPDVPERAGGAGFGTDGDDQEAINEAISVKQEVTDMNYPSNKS

[6] = target: T4, Sirt3 (Homo sapiens, UniProt Q9NTG7); assay: sirtuin inhibition IC50, Sirt3; format: biochemical; conditions: Table 1; NI = no inhibition at 256 μM
T4 sequence (Q9NTG7 1-399): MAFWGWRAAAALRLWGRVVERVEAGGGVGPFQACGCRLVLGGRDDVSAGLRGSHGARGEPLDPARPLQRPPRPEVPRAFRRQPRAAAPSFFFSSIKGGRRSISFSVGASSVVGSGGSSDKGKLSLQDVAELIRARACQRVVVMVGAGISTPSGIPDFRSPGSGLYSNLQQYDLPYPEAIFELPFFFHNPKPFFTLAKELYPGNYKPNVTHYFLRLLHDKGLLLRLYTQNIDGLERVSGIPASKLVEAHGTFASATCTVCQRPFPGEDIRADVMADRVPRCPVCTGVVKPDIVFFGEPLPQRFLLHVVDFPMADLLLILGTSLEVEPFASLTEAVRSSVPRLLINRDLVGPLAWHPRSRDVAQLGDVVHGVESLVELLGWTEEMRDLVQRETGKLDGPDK

[7] = target: T2, Sirt5; assay: LC-MS analysis of reaction mixture with Sirt5 and NAD (mechanism-based inhibition); format: biochemical; conditions: LC / MS detection
Description: To further confirm that the thiourea compound 5 is a mechanism-based inhibitor, the reaction mixture was analyzed by liquid chromatography-mass spectrometry (LC-MS). An ion with m/z of 1028.17 (corresponding to Compound 7a or protonated Compound 7b or 7c) was detected only when Compound 5 was incubated with both Sirt5 and NAD for 15 minutes, but not in negative controls without Sirt5 or NAD. In addition to Compound 7a or protonated Compound 7b or 7c, two new ions with m/z of 356.33 (corresponding to Compound 1) and 471.42 (corresponding to Compound 10) were also observed when Compound 5 was incubated with both Sirt5 and NAD, but not in negative controls without Sirt5 or NAD. Both Compounds 1 and 10 can be derived from the regular Sirt5-catalyzed deacylation reaction of Compound 7a (herein denoted as pathway A, as discussed in A. A. Sauve, et al., Annu. Rev. Biochem., 75, 435-465, 2006) or by an alternative hydrolysis pathway of 7a that is different from the regular sirtuin-catalyzed deacylation pathway (herein denoted as pathway B). […]
The foregoing results are likely responsible for Compound 3b being a less capable inhibitor of Sirt5 compared to Compound 5. […] The decomposition of the covalent intermediate occurs mainly through the Sirt5-catalyzed deacylation pathway A as the major product detected is Compound 1 with an m/z of 356.33.
The intermediate (7a/7b/7c) is readily detected by LC. […]

[8] = system: MDA-MB-231; assay: foci formation, MDA-MB-231; format: cell-based, human; conditions: tested at 10, 25, 50, 100 μM
Description: (§1) Each cancer cell line was assayed under the following six conditions: (1) untreated, (2) DMSO, (3) 15-2e at 10 μM, (4) 15-2e at 25 μM, (5) 15-2e at 50 μM, and (6) 15-2e at 100 μM.

[9] = system: MDA-MB-468; assay: foci formation, MDA-MB-468; format: cell-based, human; conditions: tested at 10, 25, 50, 100 μM
Description: as §1

[10] = system: MCF-7 cells; assay: foci formation, MCF-7; format: cell-based, human; conditions: tested at 10, 25, 50, 100 μM
Description: as §1

[11] = Table 1, NI = no inhibition at 256 μM

Structure (SMILES): CCOC(=O)CCNC(=S)NCCCCC(NC(=O)OCc1ccccc1)C(=O)NC1CCSc2ccccc21 (stereo not shown) [YC6-18e]
IC50 ([1]; Table 2, NI = no inhibition): 3.92 µM | IC50 ([2]; Table 2, NI = no inhibition): > 167 µM | succinylation level on proteins [3]: increased the succinylation level on proteins at 24 and 48 hours | killing of MCF-7 cells [4]: very effective in killing MCF-7 at 25 μM concentration

Structure (SMILES): O=C(O)CCC(=S)NCCCCC(NC(=O)OCc1ccccc1)C(=O)Nc1ccccc1 (stereo not shown) [Compound 3a, reference compound]
IC50 [5]: > 256 µM | IC50 [1, 11]: > 256 µM | IC50 [6]: > 256 µM | IC50 [2, 11]: > 500 µM | inhibition at 500 µM ([2]; at 500 μM): 20%

Structure (SMILES): CCCCCCCNC(=S)NCCCCC(NC(=O)OCc1ccccc1)C(=O)Nc1ccccc1 (stereo not shown) [Compound 6]
IC50 [5]: 64 µM | IC50 [1, 11]: 0.2 µM | IC50 [2, 11]: > 256 µM

Structure (SMILES): O=C(O)CCNC(=S)NCCCCC(NC(=O)OCc1ccccc1)C(=O)Nc1cccc(O)c1 (stereo not shown) [Compound I5-2]
IC50 ([2]; Table 2, NI = no inhibition): 0.89 µM

Structure (SMILES): O=C(O)CCCC(=S)NCCCC[C@H](NC(=O)OCc1ccccc1)C(=O)Nc1ccccc1 [Compound 3b]
IC50 [5]: > 256 µM | IC50 [1, 11]: > 256 µM | IC50 [6]: > 256 µM | IC50 [2, 11]: 43 µM | covalent intermediate with NAD in the presence of Sirt5 [7]: hardly detectable by LC

Structure (SMILES): CCOC(=O)CCNC(=S)NCCCCC(NC(=O)OCc1ccccc1)C(=O)Nc1cccc(O)c1 (stereo not shown) [Compound I5-2e]
IC50 ([1]; Table 2, NI = no inhibition): 7.05 µM | IC50 ([2]; Table 2, NI = no inhibition): > 200 µM | inhibition at 200 µM ([2]; Table 2, at 200 μM (footnote 3), read-out: inhibition of SIRT5 (in brackets under IC50)): 30% | concentration from which foci formation is inhibited [8]: about 25 μM | concentration from which foci formation is inhibited [9]: about 25 μM | concentration from which foci formation is inhibited [10]: about 25 μM

The next lines start with results.

IC50 ([2]; Table 2, NI = no inhibition): 0.45 µM
Structure (SMILES): O=C(O)CCNC(=S)NCCCCC(NC(=O)OCc1ccccc1)C(=O)NC1CCSc2ccccc21 (stereo not shown) [YC6-18]
killing of MCF-7 cells [4]: almost no effect

IC50 ([2]; Table 2, NI = no inhibition): 4.37 µM
Structure (SMILES): CC(C)(C)OC(=O)NC(CCCCNC(=S)NCCC(=O)O)C(=O)Nc1cccc(O)c1 (stereo not shown) [YC6-09]

IC50 ([2]; Table 2, NI = no inhibition): 1.91 µM
Structure (SMILES): O=C(O)CCNC(=S)NCCCCC(NC(=O)OCc1ccccc1)C(=O)Nc1ccccc1O (stereo not shown) [YC6-07]

IC50 ([2]; Table 2, NI = no inhibition): 13.6 µM
Structure (SMILES): CC(=O)NC(CCCCNC(=S)NCCC(=O)O)C(=O)Nc1cccc(O)c1 (stereo not shown) [YC6-17]

IC50 ([2]; Table 2, NI = no inhibition): 3.28 µM
Structure (SMILES): O=C(O)CCNC(=S)NCCCCC(NC(=O)OCc1ccccc1)C(=O)Nc1ccc(O)cc1 (stereo not shown) [YC6-04]

IC50 ([2]; Table 2, NI = no inhibition): 3.05 µM
Structure (SMILES): NS(=O)(=O)c1cc(C(=O)NC(CCCCNC(=S)NCCC(=O)O)C(=O)Nc2cccc(O)c2)ccc1Cl (stereo not shown) [YC6-14]
